How the values were obtained:
[1] = target: T1, PTPN2 (Homo sapiens, UniProt P17706); assay: HiBiT-Degradation 293T.109 PTPN2 (Nano-Glo HiBiT Lytic Assay); assay type: cell-based; settings: 293T.109 (HiBiT-PTPN2) cells, 24.0 hours
T1 construct: expressed in transfected cells; host or cells: 293T (293T.109 HiBiT-PTPN2 line; parental 293T WT from ATCC)
T1 sequence (P17706 1-415): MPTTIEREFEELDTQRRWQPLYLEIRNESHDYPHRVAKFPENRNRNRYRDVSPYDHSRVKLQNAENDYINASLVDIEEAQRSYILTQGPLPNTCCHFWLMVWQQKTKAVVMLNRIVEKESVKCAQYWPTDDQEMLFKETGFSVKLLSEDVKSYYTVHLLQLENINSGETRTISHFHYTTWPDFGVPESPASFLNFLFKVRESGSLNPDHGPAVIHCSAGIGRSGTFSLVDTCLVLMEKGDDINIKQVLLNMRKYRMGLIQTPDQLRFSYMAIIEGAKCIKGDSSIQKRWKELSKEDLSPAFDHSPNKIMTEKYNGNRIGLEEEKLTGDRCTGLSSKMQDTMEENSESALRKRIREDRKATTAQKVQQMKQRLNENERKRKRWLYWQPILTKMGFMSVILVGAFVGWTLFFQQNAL
Excerpt: Dulbecco's modified Eagle medium (DMEM) without phenol red and fetal bovine serum (FBS) were purchased from Gibco (Grand Island, NY, USA). Nano-Glo® HiBIT Lytic Assay System was purchased from Promega (Madison, WI, USA). 293T.109 (HiBiT-PTPN2) cell line was generated by ectopically expressing PTPN2 with N-terminal HiBiT fusion tag in 293T WT cell line purchased from ATCC (Manassas, VA, USA). Cell culture flasks and 384-well microplates were acquired from VWR (Radnor, PA, USA).
PTPN2 degradation was determined based on quantification of luminescent signal using Nano-Glo® HiBIT Lytic Assay kit. Test compounds were added to the 384-well plate from a top concentration of 10 μM with 11 points, half log titration in duplicates. 293T.109 cells were added into 384-well plates at a cell density of 5000 cells per well. The plates were kept at 37° C. with 5% CO2 for 24 hours. The cells treated in the absence of the test compound were the negative control and the cells without Nano-Glo® HiBiT Lytic reagent were the positive control. After 24-hour incubation, Nano-Glo® HiBIT Lytic Assay reagents were added to the cells. Luminescence was acquired on EnVision™ Multilabel Reader (PerkinElmer, Santa Clara, CA, USA).

[2] = test system: PTPN2; assay: HiBiT-Degradation B16F10.4 PTPN2; assay type: cell-based; settings: B16F10.4 cells, 24.0 hours

DC50 [1] | DC50 [2] | SMILES
200 to 1000 nM | ≥ 1000 nM | CC(C)(Nc1cccc2c1C(=O)N(C1CCC(=O)NC1=O)C2=O)c1cn(CCC(=O)Nc2ccc3c(F)c(N4CC(=O)NS4(=O)=O)c(O)cc3c2)nn1 (centres unmarked) [Example 18, N-(6-(1,1-dioxido-4-oxo-1,2,5-thiadiazolidin-2-yl)-5-fluoro-7-hydroxynaphthalen-2-yl)-3-(4-(2-((2-(2,6-dioxopiperidin-3-yl)-1,3-dioxoisoindolin-4-yl)amino)propan-2-yl)-1H-1,2,3-triazol-1-yl)propanamide]
50 to 200 nM | 200 to 1000 nM | O=C1CCC(N2Cc3c(OCc4cn(CCC(=O)Nc5ccc6c(F)c(N7CC(=O)NS7(=O)=O)c(O)cc6c5)nn4)cccc3C2=O)C(=O)N1 (centres unmarked) [Example 19, N-(6-(1,1-dioxido-4-oxo-1,2,5-thiadiazolidin-2-yl)-5-fluoro-7-hydroxynaphthalen-2-yl)-3-(4-(((2-(2,6-dioxopiperidin-3-yl)-1-oxoisoindolin-4-yl)oxy)methyl)-1H-1,2,3-triazol-1-yl)propanamide]
50 to 200 nM | 50 to 200 nM | O=C1CCC(N2Cc3cc(OCc4cn(CCC(=O)Nc5ccc6c(F)c(N7CC(=O)NS7(=O)=O)c(O)cc6c5)nn4)ccc3C2=O)C(=O)N1 (centres unmarked) [Example 20, 3-[4-[[2-(2,6-dioxo-3-piperidyl)-1-oxo-isoindolin-5-yl]oxymethyl]triazol-1-yl]-N-[5-fluoro-7-hydroxy-6-(1,1,4-trioxo-1,2,5-thiadiazolidin-2-yl)-2-naphthyl]propanamide]
50 to 200 nM | 200 to 1000 nM | O=C1CCC(N2Cc3c(OCc4cnn(CCC(=O)Nc5ccc6c(F)c(N7CC(=O)NS7(=O)=O)c(O)cc6c5)c4)cccc3C2=O)C(=O)N1 (centres unmarked) [Example 21, N-(6-(1,1-dioxido-4-oxo-1,2,5-thiadiazolidin-2-yl)-5-fluoro-7-hydroxynaphthalen-2-yl)-3-(4-(((2-(2,6-dioxopiperidin-3-yl)-1-oxoisoindolin-4-yl)oxy)methyl)-1H-pyrazol-1-yl)propanamide]
< 10 nM | 50 to 200 nM | Cn1c(=O)n(C2CCC(=O)NC2=O)c2ccc(C3CCN(CC(=O)Nc4ccc5c(F)c(N6CC(=O)NS6(=O)=O)c(O)cc5c4)CC3)cc21 (centres unmarked) [Example 22, N-(6-(1,1-dioxido-4-oxo-1,2,5-thiadiazolidin-2-yl)-5-fluoro-7-hydroxynaphthalen-2-yl)-2-(4-(1-(2,6-dioxopiperidin-3-yl)-3-methyl-2-oxo-2,3-dihydro-1H-benzo[d]imidazol-5-yl)piperidin-1-yl)acetamide]
50 to 200 nM | 50 to 200 nM | CC(C)n1c(=O)n(C2CCC(=O)NC2=O)c2ccc(C3CCN(CC(=O)Nc4ccc5c(F)c(N6CC(=O)NS6(=O)=O)c(O)cc5c4)CC3)cc21 (centres unmarked) [Example 24, 2-[4-[1-(2,6-dioxo-3-piperidyl)-3-isopropyl-2-oxo-benzimidazol-5-yl]-1-piperidyl]-N-[5-fluoro-7-hydroxy-6-(1,1,4-trioxo-1,2,5-thiadiazolidin-2-yl)-2-naphthyl]acetamide]
200 to 1000 nM | ≥ 1000 nM | Cn1c(=O)n(C2CCC(=O)NC2=O)c2cccc(C3CCN(CC(=O)Nc4ccc5c(F)c(N6CC(=O)NS6(=O)=O)c(O)cc5c4)CC3)c21 (centres unmarked) [Example 25, 2-[4-[1-(2,6-dioxo-3-piperidyl)-3-methyl-2-oxo-benzimidazol-4-yl]-1-piperidyl]-N-[5-fluoro-7-hydroxy-6-(1,1,4-trioxo-1,2,5-thiadiazolidin-2-yl)-2-naphthyl]acetamide]
50 to 200 nM | 50 to 200 nM | O=C1CCC(N2C(=O)c3cccc4c(C5CCN(CC(=O)Nc6ccc7c(F)c(N8CC(=O)NS8(=O)=O)c(O)cc7c6)CC5)ccc2c34)C(=O)N1 (centres unmarked) [Example 26, 2-[4-[1-(2,6-dioxo-3-piperidyl)-2-oxo-benzo[cd]indol-6-yl]-1-piperidyl]-N-[5-fluoro-7-hydroxy-6-(1,1,4-trioxo-1,2,5-thiadiazolidin-2-yl)-2-naphthyl]acetamide]
10 to 50 nM | 200 to 1000 nM | Cn1c(=O)n(C2CCC(=O)NC2=O)c2ccc(NC3CN(CC(=O)Nc4ccc5c(F)c(N6CC(=O)NS6(=O)=O)c(O)cc5c4)C3)cc21 (centres unmarked) [Example 27, 2-[3-[[1-(2,6-dioxo-3-piperidyl)-3-methyl-2-oxo-benzimidazol-5-yl]amino]azetidin-1-yl]-N-[5-fluoro-7-hydroxy-6-(1,1,4-trioxo-1,2,5-thiadiazolidin-2-yl)-2-naphthyl]acetamide]
< 10 nM | 50 to 200 nM | Cn1nc(C2CCC(=O)NC2=O)c2ccc(C3CCN(CC(=O)Nc4ccc5c(F)c(N6CC(=O)NS6(=O)=O)c(O)cc5c4)CC3)cc21 (centres unmarked) [Example 28, 2-[4-[3-(2,6-dioxo-3-piperidyl)-1-methyl-indazol-6-yl]-1-piperidyl]-N-[5-fluoro-7-hydroxy-6-(1,1,4-trioxo-1,2,5-thiadiazolidin-2-yl)-2-naphthyl]acetamide]
< 10 nM | 50 to 200 nM | Cn1c(=O)n(C2CCC(=O)NC2=O)c2ccc(C3CCN(CCNC(=O)c4ccc5c(F)c(N6CC(=O)NS6(=O)=O)c(O)cc5c4)CC3)cc21 (centres unmarked) [Example 29, N-[2-[4-[1-(2,6-dioxo-3-piperidyl)-3-methyl-2-oxo-benzimidazol-5-yl]-1-piperidyl]ethyl]-5-fluoro-7-hydroxy-6-(1,1,4-trioxo-1,2,5-thiadiazolidin-2-yl)naphthalene-2-carboxamide]
≥ 1000 nM | ≥ 1000 nM | Cn1c(=O)n(C2CCC(=O)NC2=O)c2ccc(C3CCN(C(=O)CCC(=O)NCCOc4ccc5cc(O)c(N6CC(=O)NS6(=O)=O)c(F)c5c4)CC3)cc21 (centres unmarked) [Example 30]
200 to 1000 nM | ≥ 1000 nM | Cn1c(=O)n(C2CCC(=O)NC2=O)c2ccc(C3CCN(C(=O)NCCOc4ccc5cc(O)c(N6CC(=O)NS6(=O)=O)c(F)c5c4)CC3)cc21 (centres unmarked) [Example 31]
200 to 1000 nM | 200 to 1000 nM | O=C1CCC(N2Cc3c(OCC(=O)N4CCC(C(=O)N5CC(Oc6ccc7cc(O)c(N8CC(=O)NS8(=O)=O)c(F)c7c6)C5)CC4)cccc3C2=O)C(=O)N1 (centres unmarked) [Example 32]
200 to 1000 nM | ≥ 1000 nM | Cn1c(=O)n(C2CCC(=O)NC2=O)c2cccc(C3CCN(CC(=O)NCCOc4ccc5cc(O)c(N6CC(=O)NS6(=O)=O)c(F)c5c4)CC3)c21 (centres unmarked) [Example 33]
≥ 1000 nM | ≥ 1000 nM | Cn1c(=O)n(C2CCC(=O)NC2=O)c2ccc(CCC(=O)NCCOc3ccc4cc(O)c(N5CC(=O)NS5(=O)=O)c(F)c4c3)cc21 (centres unmarked) [Example 34]
200 to 1000 nM | 200 to 1000 nM | O=C1CCC(N2Cc3cc(NCC(=O)N4CCC(C(=O)NCCOc5ccc6cc(O)c(N7CC(=O)NS7(=O)=O)c(F)c6c5)CC4)ccc3C2=O)C(=O)N1 (centres unmarked) [Example 35]
200 to 1000 nM | 200 to 1000 nM | O=C1CCC(N2Cc3c(NCC(=O)N4CC(C(=O)NCCOc5ccc6cc(O)c(N7CC(=O)NS7(=O)=O)c(F)c6c5)C4)cccc3C2=O)C(=O)N1 (centres unmarked) [Example 36]
≥ 1000 nM | ≥ 1000 nM | CC(C)(Nc1cccc2c1C(=O)N(C1CCC(=O)NC1=O)C2=O)c1cn(CCOCCC(=O)NCCOc2ccc3cc(O)c(N4CC(=O)NS4(=O)=O)c(F)c3c2)nn1 (centres unmarked) [Example 37]
≥ 1000 nM | ≥ 1000 nM | O=C(CCOCCn1cc(C2(Nc3cccc4c3C(=O)N(C3CCC(=O)NC3=O)C4=O)CC2)nn1)NCCOc1ccc2cc(O)c(N3CC(=O)NS3(=O)=O)c(F)c2c1 (centres unmarked) [Example 38]
≥ 1000 nM | ≥ 1000 nM | Cn1c(=O)n(C2CCC(=O)NC2=O)c2cccc(C3CCN(CCOCCC(=O)NCCOc4ccc5cc(O)c(N6CC(=O)NS6(=O)=O)c(F)c5c4)CC3)c21 (centres unmarked) [Example 39]
200 to 1000 nM | ≥ 1000 nM | O=C(CN1CCC(n2cc(CNc3cccc4c3C(=O)N(C3CCC(=O)NC3=O)C4=O)nn2)CC1)NCCOc1ccc2cc(O)c(N3CC(=O)NS3(=O)=O)c(F)c2c1 (centres unmarked) [Example 40]
200 to 1000 nM | ≥ 1000 nM | O=C(CCC1CCN(C(=O)CNc2cccc3c2C(=O)N(C2CCC(=O)NC2=O)C3=O)CC1)NCCOc1ccc2cc(O)c(N3CC(=O)NS3(=O)=O)c(F)c2c1 (centres unmarked) [Example 41]
200 to 1000 nM | ≥ 1000 nM | O=C(CN1CC(n2cc(CNc3cccc4c3C(=O)N(C3CCC(=O)NC3=O)C4=O)nn2)C1)NCCOc1ccc2cc(O)c(N3CC(=O)NS3(=O)=O)c(F)c2c1 (centres unmarked) [Example 42]

SMILES | DC50 [1] | DC50 [2]
O=C1CCC(n2c(=O)oc3cc(C4CCN(CC(=O)Nc5ccc6c(F)c(N7CC(=O)NS7(=O)=O)c(O)cc6c5)CC4)ccc32)C(=O)N1 (centres unmarked) [Example 23, 2-[4-[3-(2,6-dioxo-3-piperidyl)-2-oxo-1,3-benzoxazol-6-yl]-1-piperidyl]-N-[5-fluoro-7-hydroxy-6-(1,1,4-trioxo-1,2,5-thiadiazolidin-2-yl)-2-naphthyl]acetamide] | 10 to 50 nM | 50 to 200 nM
